Two compounds from ChEMBL document CHEMBL3861969, “Acredinone C and the Effect of Acredinones on Osteoclastogenic and Osteoblastogenic Activity” (J Nat Prod, 2016) can be followed below.

In data set [1] the test system is C2C12. The data set can be described thus: Induction of BMP2-induced osteoblast differentiation in mouse C2C12 cells assessed as increase in ALP mRNA expression at 10 uM preincubated with cells followed by BMP2 addition measured after 3 days by real-time PCR analysis. Type of data set: functional, cell-based.
Data set [2] has as its system BMDM. The experiment in a line: Inhibition of RANKL-induced DC-STAMP mRNA expression in mouse BMDM cells at 10 uM preincubated with cells followed by RANKL addition measured after 2 days by real-time PCR analysis. It is filed as functional, cell-based. A general note: In qPCR the cycle at which signal appears reflects the starting amount.
The target in data set [3] is RAC-alpha serine/threonine-protein kinase (Mus musculus) (UniProt P31750). The experiment in a line: Inhibition of RANKL-induced AKT phosphorylation in mouse BMDM cells assessed as ratio of phosphorylated AKT to AKT at 10 uM preincubated for 5 mins followed RANKL/M-CSF addition for 5 mins by Western blot analysis (reference value: 2.1). Type of data set: cell-based.
Chain of RAC-alpha serine/threonine-protein kinase (Mus musculus) (P31750 whole entry): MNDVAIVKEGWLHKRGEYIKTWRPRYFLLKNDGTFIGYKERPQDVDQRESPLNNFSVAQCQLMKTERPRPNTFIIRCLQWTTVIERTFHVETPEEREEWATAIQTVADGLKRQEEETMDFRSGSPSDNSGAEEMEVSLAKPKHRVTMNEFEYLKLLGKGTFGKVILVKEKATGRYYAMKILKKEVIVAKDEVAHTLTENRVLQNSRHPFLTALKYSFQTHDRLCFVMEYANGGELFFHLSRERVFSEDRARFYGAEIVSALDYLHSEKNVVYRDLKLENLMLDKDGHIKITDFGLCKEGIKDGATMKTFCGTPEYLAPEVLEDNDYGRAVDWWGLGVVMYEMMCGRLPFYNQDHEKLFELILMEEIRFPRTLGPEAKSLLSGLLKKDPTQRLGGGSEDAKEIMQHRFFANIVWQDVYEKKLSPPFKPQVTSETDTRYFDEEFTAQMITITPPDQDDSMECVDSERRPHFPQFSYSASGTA

Data set [4] has as its target MAP kinase p38 (Mus musculus) (UniProt P47811+O08911+Q9WUI1+Q9Z1B7). The data set can be described thus: Inhibition of RANKL-induced p38 phosphorylation in mouse BMDM cells assessed as ratio of phosphorylated p38 to p38 at 10 uM preincubated for 5 mins followed RANKL/M-CSF addition for 5 mins by Western blot analysis (reference value: 24.7). It is filed as cell-based. A general note: Immunoblotting shows a protein as a band on a membrane.

Data set [5] concerns the target Mitogen-activated protein kinase 1 (Mus musculus) (UniProt P63085). The experiment in a line: Inhibition of RANKL-induced ERK2 phosphorylation in mouse BMDM cells assessed as ratio of phosphorylated ERK2 to ERK2 at 10 uM preincubated for 5 mins followed RANKL/M-CSF addition for 5 mins by Western blot analysis (reference value: 2.6). Type of data set: cell-based.
Data set [6] deals with Mitogen-activated protein kinase 8 (Mus musculus) (UniProt Q91Y86). The experiment in a line: Inhibition of RANKL-induced JNK1 phosphorylation in mouse BMDM cells assessed as ratio of phosphorylated JNK1 to JNK1 at 10 uM preincubated for 5 mins followed RANKL/M-CSF addition for 5 mins by Western blot analysis (reference value: 3.7). Type of data set: cell-based.
Chain of Mitogen-activated protein kinase 8 (Mus musculus) (Q91Y86 whole entry): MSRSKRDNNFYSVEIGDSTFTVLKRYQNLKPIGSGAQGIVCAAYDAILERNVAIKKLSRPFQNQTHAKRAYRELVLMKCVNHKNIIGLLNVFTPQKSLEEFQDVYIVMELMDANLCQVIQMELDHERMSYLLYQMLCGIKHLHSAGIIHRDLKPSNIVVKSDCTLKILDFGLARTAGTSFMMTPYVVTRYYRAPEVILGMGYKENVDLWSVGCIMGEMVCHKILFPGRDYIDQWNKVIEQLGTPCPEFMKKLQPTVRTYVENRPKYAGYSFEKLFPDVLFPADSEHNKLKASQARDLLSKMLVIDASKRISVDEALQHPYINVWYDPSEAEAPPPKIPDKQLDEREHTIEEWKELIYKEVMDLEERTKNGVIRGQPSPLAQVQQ
Data set [7] deals with BMDM. The experiment in a line: Inhibition of RANKL-induced mouse BMDM cell differentiation assessed as TRAP-positive MNCs at 0.1 to 30 uM preincubated for 5 mins followed by RANKL/M-CSF addition measured after 4 days by TRAP-staining based assay. Type of data set: functional.
In data set [8] the target is T1, NF-kappa-B inhibitor alpha (Mus musculus) (UniProt Q9Z1E3).
T1 sequence (whole entry): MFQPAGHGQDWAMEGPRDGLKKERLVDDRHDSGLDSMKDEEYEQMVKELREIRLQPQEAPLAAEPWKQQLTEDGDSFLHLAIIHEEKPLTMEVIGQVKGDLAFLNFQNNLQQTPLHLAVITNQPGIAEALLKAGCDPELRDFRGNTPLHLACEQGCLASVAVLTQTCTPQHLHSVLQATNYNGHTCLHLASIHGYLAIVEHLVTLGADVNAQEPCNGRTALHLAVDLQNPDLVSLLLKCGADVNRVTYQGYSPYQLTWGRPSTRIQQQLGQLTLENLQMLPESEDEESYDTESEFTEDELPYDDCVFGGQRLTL
The experiment in a line: Inhibition of RANKL-induced IkBalpha phosphorylation in mouse BMDM cells at 10 uM preincubated for 5 mins followed RANKL/M-CSF addition for 5 mins by Western blot analysis. It is filed as cell-based.

Data set [9] relates to BMDM. The experiment in a line: Inhibition of RANKL-induced cathespin K mRNA expression in mouse BMDM cells at 10 uM preincubated with cells followed by RANKL addition measured after 2 days by real-time PCR analysis. Type of data set: functional, cell-based.
The nature of data set [10]: Inhibition of RANKL-induced c-Fos expression in mouse BMDM cells assessed as ratio of c-Fos to actin at 10 uM preincubated with cells followed RANKL/M-CSF addition measured after 1 day by Western blot analysis (reference value: 6.4). It is filed as functional.
Data set [11] deals with BMDM. The experiment in a line: Inhibition of RANKL-induced mouse BMDM cell differentiation assessed as TRAP-positive MNCs at 0.1 to 10 uM preincubated for 5 mins followed by RANKL/M-CSF addition measured after 4 days by TRAP-staining based assay. Type of data set: functional.
For data set [12], the species on record is Mus musculus. The experiment in a line: Cytotoxicity against mouse C2C12 cells assessed as reduction cell viability after 3 days in presence of BMP2 by CCK-8 assay. Type of data set: toxicity, cell-based. The following applies: c2c12, 72 h.
Data set [13] has as its system BMDM. The data set can be described thus: Inhibition of RANKL-induced OSCAR mRNA expression in mouse BMDM cells at 10 uM preincubated with cells followed by RANKL addition measured after 2 days by real-time PCR analysis. It is filed as functional, cell-based.
Data set [14] deals with Mitogen-activated protein kinase 3 (Mus musculus) (UniProt Q63844). The data set can be described thus: Inhibition of RANKL-induced ERK1 phosphorylation in mouse BMDM cells assessed as ratio of phosphorylated ERK1 to ERK1 at 10 uM preincubated for 5 mins followed RANKL/M-CSF addition for 5 mins by Western blot analysis (reference value: 2.9). It is filed as cell-based.
Chain of Mitogen-activated protein kinase 3 (Mus musculus) (Q63844 whole entry): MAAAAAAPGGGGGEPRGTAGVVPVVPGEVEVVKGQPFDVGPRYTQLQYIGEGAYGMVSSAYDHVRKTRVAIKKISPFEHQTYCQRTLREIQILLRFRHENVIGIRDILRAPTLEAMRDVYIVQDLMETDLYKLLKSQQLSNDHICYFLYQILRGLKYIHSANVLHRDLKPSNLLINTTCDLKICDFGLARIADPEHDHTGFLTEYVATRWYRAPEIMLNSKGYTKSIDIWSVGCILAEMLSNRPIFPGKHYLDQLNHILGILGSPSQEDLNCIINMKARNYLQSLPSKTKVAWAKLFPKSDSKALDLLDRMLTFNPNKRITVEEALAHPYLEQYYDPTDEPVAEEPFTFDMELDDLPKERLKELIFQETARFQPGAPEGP
Data set [15] is filed under the species Mus musculus. The experiment in a line: Cytotoxicity against mouse BMDM cells assessed as reduction in cell viability at 30 uM after 3 days in presence of M-CSF by CCK-8 assay. Type of data set: toxicity, cell-based. As to conditions: 72 h. On the technique in general: Tetrazolium dyes change colour on reduction, which living cells bring about.
The test system of data set [16] is BMDM. The data set can be described thus: Inhibition of RANKL-induced NFATc1 mRNA expression in mouse BMDM cells at 10 uM preincubated with cells followed by RANKL addition measured after 2 days by real-time PCR analysis. Type of data set: functional, cell-based.
Data set [17] deals with Osteoclast. The experiment in a line: Inhibition of RANKL-induced mouse BMDM cell differentiation assessed as reduction in TRAP-positive multi-nucleated osteoclast cells preincubated for 5 mins followed by RANKL/M-CSF addition measured after 4 days by light microscopic analysis. Type of data set: functional, cell-based.
Data set [18] deals with BMDM. The experiment in a line: Inhibition of RANKL-induced TRAP mRNA expression in mouse BMDM cells at 10 uM preincubated with cells followed by RANKL addition measured after 2 days by real-time PCR analysis. Type of data set: functional, cell-based.
The subject of data set [19] is BMDM. The data set can be described thus: Inhibition of RANKL-induced mouse BMDM cell differentiation assessed as reduction in TRAP activity at 0.1 to 30 uM using p-nitrophenyl phosphate as substrate preincubated for 5 mins followed by RANKL/M-CSF addition measured after 4 days. It is filed as functional, cell-based.
In data set [20] the test system is BMDM. The data set can be described thus: Inhibition of RANKL-induced c-Src mRNA expression in mouse BMDM cells at 10 uM preincubated with cells followed by RANKL addition measured after 2 days by real-time PCR analysis. Type of data set: functional, cell-based.
A short description of data set [21]: Inhibition of RANKL-induced NFATc1 expression in mouse BMDM cells assessed as ratio of NFATc1 to actin at 10 uM preincubated with cells followed RANKL/M-CSF addition measured after 1day by Western blot analysis (reference value: 281). Type of data set: functional.
Data set [22] concerns the target Mitogen-activated protein kinase 9 (Mus musculus) (UniProt Q9WTU6). The data set can be described thus: Inhibition of RANKL-induced JNK2 phosphorylation in mouse BMDM cells assessed as ratio of phosphorylated JNK2 to JNK2 at 10 uM preincubated for 5 mins followed RANKL/M-CSF addition for 5 mins by Western blot analysis (reference value: 5.2). Type of data set: cell-based.

The species entered for data set [23] is Mus musculus. The experiment in a line: Cytotoxicity against mouse BMDM cells assessed as reduction in cell viability up to 10 uM after 3 days in presence of M-CSF by CCK-8 assay. Type of data set: toxicity, cell-based. The following applies: 72 h.

The source made the active and inactive calls. No cut-off for these calls is given here.

Chain of Mitogen-activated protein kinase 1 (Mus musculus) (P63085 whole entry): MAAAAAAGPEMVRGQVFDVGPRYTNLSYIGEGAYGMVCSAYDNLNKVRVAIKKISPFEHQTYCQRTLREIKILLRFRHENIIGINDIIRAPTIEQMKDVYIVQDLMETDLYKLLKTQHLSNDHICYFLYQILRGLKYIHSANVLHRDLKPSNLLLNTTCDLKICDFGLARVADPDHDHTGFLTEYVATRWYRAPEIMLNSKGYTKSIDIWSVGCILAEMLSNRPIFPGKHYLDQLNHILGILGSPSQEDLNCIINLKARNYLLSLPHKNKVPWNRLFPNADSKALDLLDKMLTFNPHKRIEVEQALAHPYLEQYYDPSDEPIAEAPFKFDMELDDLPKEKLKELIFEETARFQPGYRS
Chain of Mitogen-activated protein kinase 9 (Mus musculus) (Q9WTU6 whole entry): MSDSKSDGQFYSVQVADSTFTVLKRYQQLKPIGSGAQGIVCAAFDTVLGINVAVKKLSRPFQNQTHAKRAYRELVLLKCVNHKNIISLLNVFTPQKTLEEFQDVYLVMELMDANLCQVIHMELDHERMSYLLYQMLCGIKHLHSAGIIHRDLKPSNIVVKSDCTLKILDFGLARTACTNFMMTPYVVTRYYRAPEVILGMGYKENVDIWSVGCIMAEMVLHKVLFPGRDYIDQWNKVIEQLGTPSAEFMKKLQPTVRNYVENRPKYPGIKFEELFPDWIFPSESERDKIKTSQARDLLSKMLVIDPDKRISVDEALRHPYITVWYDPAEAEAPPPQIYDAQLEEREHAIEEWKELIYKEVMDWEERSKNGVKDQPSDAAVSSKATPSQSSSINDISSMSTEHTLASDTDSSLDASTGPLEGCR

In the case of `COc1cccc(OC)c1C(=O)c1c(O)cc(C)c(OC)c1CC(=O)c1c(OC)c(C)cc(O)c1C(=O)c1c(OC)cccc1OC`, the outcome in data set [1] was Active. Besides, the inhibition entry in data set [2], in [7], in data set [8], in data set [9], in [11] and in [13] was “Active” in each case. Further, the inhibition entry in data set [16], in [18], in data set [19] and in data set [20] was “Active” in each case. The fold change (FC) in [3] came out at 1.1; in data set [4], 20.2; in [5] it was 1.7; in data set [6], 2.7; in data set [10] it was 3.5; in data set [14], 2.1. For the same compound, the “fold change (FC)” value in [21] is 124; in data set [22] it was 4.2. Besides, the Activity entry in data set [12] is listed as “Non-Toxic”; in [15], “Toxic”; in data set [23] it was “Non-Toxic”. Also, the inhibition result in data set [17] was “Dose-dependent effect”.

For `COc1cccc(OC)c1C(=O)c1c(O)cc(C)c(OC)c1C(=O)Cc1c(OC)c(C)cc2oc3cccc(OC)c3c(=O)c12`, the result in [1] was Active. For the same compound, the inhibition result in [2], in data set [7], in data set [8], in data set [9], in [11] and in data set [13] was “Active” in each case. In addition, the inhibition entry in [16], in data set [18], in [19] and in data set [20] was “Active” throughout. Further, the fold change (FC) in [3] came out at 1.7; in data set [4] it was 8.2; in [5] it was 2.6; in data set [6] it was 2.2; in data set [10] it was 2.4; in data set [14], 3.3. For the same compound, the “fold change (FC)” value in data set [21] is 85; in [22] it was 3.7. The Activity entry in [12] and in data set [23] was “Non-Toxic” throughout. Also, the inhibition entry in data set [17] was “Dose-dependent effect”.
